According to patent US5719279A, “Asymmetrically substituted xanthines” (Boehringer Ingelheim KG, priority 1992, dated 1998):

Assays:
CF PAC cells = assay: efflux of chloride ions in CF PAC cells (preliminary investigations); assay type: cell-based, human (patients suffering from cystic fibrosis); settings: activity of A1-antagonists in CF PAC cells
Source text: Cystic fibrosis--also known as mucoviscidosis--is a hereditary disorder caused by a genetic defect on a certain chromosome. Only homozygotic carriers of the feature succumb to the disease. The genetic defects leads to the .dysfunction of exocrine glands. As a result of increased production and greater viscosity of the secretions of the mucous glands in the bronchi, severe complications may arise in the respiratory tract. Preliminary investigations have shown that A1 -antagonists increase the efflux of chloride ions, e.g..in CF PAC cells. The cells come from a pancreas adenocarcinoma cell line which was isolated from patients suffering from cystic fibrosis (CF).

[1] = biological target: T1, human A1 adenosine receptor (Homo sapiens, UniProt P30542); assay: receptor binding, A1 adenosine receptor (analogously to Ensinger et al.); settings: Table Ia
T1 sequence (P30542 1-326): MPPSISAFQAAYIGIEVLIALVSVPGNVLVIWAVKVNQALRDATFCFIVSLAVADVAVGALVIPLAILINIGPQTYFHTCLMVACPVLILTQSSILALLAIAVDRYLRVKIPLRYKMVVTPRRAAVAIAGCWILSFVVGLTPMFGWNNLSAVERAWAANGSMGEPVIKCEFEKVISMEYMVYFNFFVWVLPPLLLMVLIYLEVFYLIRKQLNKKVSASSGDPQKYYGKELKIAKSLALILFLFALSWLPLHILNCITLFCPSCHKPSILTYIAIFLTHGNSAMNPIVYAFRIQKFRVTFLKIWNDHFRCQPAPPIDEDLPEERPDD
Experimental: The receptor binding values were determined analogously to Ensinger et al. in "Cloning and functional characterisation of human A1 adenosine receptor--Biochemical and Biophysical Communications, Vol 187, No. 2, 919-926, 1992".

SMILES | blockade of the chloride efflux activity by agonists (CF PAC cells) | Ki [1] [nM]
Nc1nc(Cl)nc2c1ncn2[C@@H]1O[C@H](CO)[C@@H](O)[C@H]1O [2-chloroadenosine] | successfully blocked | –
CCCn1c(=O)c2[nH]c(C3CCCC3)nc2n(CCCC#N)c1=O [Example 01, 3-(3-cyanopropyl)-8-cyclopentyl-1-propylxanthine] | – | 7.5
CCCn1c(=O)c2[nH]c(C3CCCC3)nc2n(CCCOC)c1=O [Example 04, 8-cyclopentyl-3-(3-methoxypropyl)-1-propylxanthine] | – | 8
CCCn1c(=O)c2[nH]c(C3CCCC3)nc2n(CCO)c1=O [Example 05, 8-cyclopentyl-3-(2-hydroxyethyl)-1-propylxanthine] | – | 46.7
CCCn1c(=O)c2[nH]c(C3CCCC3)nc2n(CCCO)c1=O [Example 06, 8-cyclopentyl-3-(3-hydroxypropyl)-1-propylxanthine] | – | 66.8
CCCn1c(=O)c2[nH]c(C3CCCC3)nc2n(CCOC(C)=O)c1=O [Example 07, 8-cyclopentyl-3-(2-(methylcarbonyloxy)-ethyl)-1-propylxanthine] | – | 2.7
CCCn1c(=O)c2[nH]c(C3CCCC3)nc2n(CCCOC(C)=O)c1=O [Example 08, 8-cyclopentyl-3-(3-acetoxypropyl)-1-propylxanthine] | – | 3.5
CCCn1c(=O)c2[nH]c(C3CCCC3)nc2n(CCC(=O)OC)c1=O [Example 10, 8-cyclopentyl-3-(2-methoxycarbonylethyl)-1-propylxanthine] | – | 3.1
CCCn1c(=O)c2[nH]c(C3CCCC3)nc2n(CCC(N)=O)c1=O [Example 11, 3-(2-carbamoylethyl)-8-cyclopentyl-1-propylxanthine] | – | 4
CCCn1c(=O)c2[nH]c(C3CCCC3)nc2n(CCC(=O)N2CCOCC2)c1=O [Example 14, 8-cyclopentyl-3-(2-(N-morpholinocarbonyl)-ethyl)-1-propylxanthine] | – | 36.4
CCCn1c(=O)c2[nH]c(C3CCCC3)nc2n(CCC(C)O)c1=O (stereo not shown) [Example 15, 8-cyclopentyl-3-(3-hydroxybutyl)-1-propylxanthine] | – | 6.4
CCCn1c(=O)c2[nH]c(C3CCCC3)nc2n(CC=NO)c1=O [Example 17, 8-cyclopentyl-3-hydroximinoethyl-1-propylxanthine] | – | 3.8
CCCn1c(=O)c2[nH]c(C3CCCC3)nc2n(CCCN2CCOCC2)c1=O [Example 19, 8-cyc lopentyl-3-(3-(N-morpholino)-propyl)-1-propylxanthine] | – | 11.5
CCCn1c(=O)c2[nH]c(C3CCCC3)nc2n(CCc2ccc(O)cc2)c1=O [Example 24, 8-cyclopentyl-3-(2-(p-hydroxyphenyl)-ethyl)-1-propylxanthine] | – | 1.7
CCCn1c(=O)c2[nH]c(C3CCCC3)nc2n(CCc2ccc(OC(C)=O)cc2)c1=O [Example 28, 8-cyclopentyl-3-(2-(p-(methylcarbonyloxy)-phenyl)-ethyl)-1-propylxanthine] | – | 29.3
CCCn1c(=O)c2[nH]c(C3CCCC3)nc2n(CCCc2ccc(OCC(=O)OCC)cc2)c1=O [Example 31, 8-cyclopentyl-3-(3-(p-(ethoxycarbonylmethyloxy)-phenyl)-propyl)-1-propylxanthine] | – | 9.1
CCCn1c(=O)c2[nH]c(C3CCCC3)nc2n(CCSCCO)c1=O [Example 47, 8-cyclopentyl-3-(2-(2-hydroxyethyl)-thioethyl)-1-propylxanthine] | – | 2.1
CCCn1c(=O)c2[nH]c(C3CCCC3)nc2n(CCCc2cccnc2)c1=O [Example 52] | – | 5
CCCn1c(=O)c2[nH]c(C3CCCC3)nc2n(CCc2ccncc2)c1=O [Example 59] | – | 2
CCCn1c(=O)c2[nH]c(C3CCCC3)nc2n(CCCC(N)=O)c1=O [Example 60, 3-(3-(aminocarbonyl)-propyl)-8-cyclopentyl-1-propylxanthine] | – | 3.8
CCCn1c(=O)c2[nH]c(C3CCCC3)nc2n(CCN2CCSCC2)c1=O [Example 68] | – | 32.6
CCCn1c(=O)c2[nH]c(C3CCCC3)nc2n(CCS(=O)(=O)CCO)c1=O [Example 70, 8-cyclopentyl-3-(2-(2-hydroxyethyl)-sulphonylethyl)-1-propyl-xanthine] | – | 6.2
